Read-outs that look alike come from different tables or passages of the source.
Key:
[1] = biological target: T1, human Gluocorticoid receptor (GR) (Homo sapiens, UniProt P04150); assay: GR antagonist assay (GeneBLAzer beta-lactamase reporter, GR-UAS-bla HEK 293T cells, dexamethasone as agonist); type: cell-based; conditions: for antagonist effect on GR (in words) / GR inhibition: against dexamethasone; for GR inhibition: at 10 μM
T1 construct: expressed in transfected cells; host or cells: GeneBLAzer UAS-bla HEK 293T
T1 sequence (P04150 524-758 limits assumed): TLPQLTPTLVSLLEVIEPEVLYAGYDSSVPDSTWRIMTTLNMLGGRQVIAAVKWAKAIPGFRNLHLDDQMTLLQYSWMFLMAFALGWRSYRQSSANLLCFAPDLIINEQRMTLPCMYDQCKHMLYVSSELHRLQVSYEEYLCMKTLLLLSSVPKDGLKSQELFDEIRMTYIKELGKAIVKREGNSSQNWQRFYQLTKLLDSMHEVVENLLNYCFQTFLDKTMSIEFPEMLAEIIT
Description: An antagonist assay for GR was performed.
These cells stably express a beta-lactamase reporter gene under the transcriptional control of an upstream activator sequence (UAS). When an agonist binds to the LBD of the GAL4 (DBD)-GR (LBD) fusion protein, the protein binds to the UAS, resulting in expression of beta-lactamase.
32 μL of cell suspension is added to the wells and pre-incubated at 37° C./5% CO2 in a humidified incubator with compounds and control antagonist titration for 30 minutes. 4 μL of 10× control agonist. Dexamethasone at the pre-determined EC80 concentration is added to wells containing the control antagonist or compounds. The plate is incubated for 16-24 hours at 37° C./5% CO2 in a humidified incubator. 8 μL of 1 μM Substrate Loading Solution is added to each well and the plate is incubated for 2 hours at room temperature. The plate is read on a fluorescence plate reader.

[2] = system: triple negative breast adenocarcinoma cell line MDA-MB-231; assay: Cytotoxicity by the MTT method; conditions: MDA-MB-231, 72 h, read-out: EC50 (cytotoxic effect)
Description: For that purpose the cytotoxic effects (EC50) of fucoxanthin (063-06691, Wako Chemicals) alone and combined with paclitaxel (T1912, Sigma-Aldrich) on the triple negative breast adenocarcinoma cell line MDA-MB-231 (ECACC: 92020424) were assessed.
In a first setup, MDA-MB-231 cells were seeded in 96 well plates with 100 μL of DMEM +10% FBS and incubated at 37° C., 5% CO2 and 90% humidity. After 24 hours, with a confluence and viability of between 80 and 90% as assessed by trypan blue test, cells were treated with serial dilutions (1:3) in DMEM+10% FBS of fucoxanthin solubilized in DMSO ranging from 100 μM to 15.2 nM.
In a second setup, MDA-MB-231 cells were seeded in 96 well plates with 100 μL of DMEM +10% FBS and incubated at 37° C., 5% CO2 and 90% humidity. After 24 hours, with a confluence and viability of between 80 and 90% as assessed by trypan blue test, cells were treated with serial dilutions (1:3) of paclitaxel in DMEM+10% FBS ranging from 1 μM to 0.15 nM or with both the same concentrations of paclitaxel plus a fixed subtoxic concentration of fucoxanthin (1 μM) solubilized in DMSO (100 μM).

HaCat cell line = assay: Hydrocortisone-induced DNA damage assay (HCS DNA Damage kit, phosphorylated H2AX); type: cell-based, human; conditions: compounds at 0.1 μM, 1 h before 10 μM hydrocortisone
Description: HaCat cell line, a spontaneously transformed aneuploid immortal keratinocyte cell line from adult human skin was used. Keratinocytes were cultured in DMEM medium supplemented with 10% FCS. […] Assays were performed with cells between 80% and 90% of confluence and with a cell viability above 90% (tested by trypan blue staining). 20000 cells per experimental condition were seeded in 24 well plates with 1 mL of medium for 24 h. Culture medium was substituted for not supplemented DMEM and after a 24 hour incubation, compounds were added at 0.1 μM to assay wells. […] Plate was incubated for 30 min before the DNA extraction. DNA damage was quantified using the HCS DNA Damage kit (ThermoFisher®). “The HCS DNA Damage kit simultaneously and quantitatively measures two important cell-health parameters: DNA damage and cytotoxicity. DNA damage is detected using an antibody against phosphorylated H2AX (Ser139) which is induced in response to double-strand break (DSB) formation”. Plate was read using Fluoroscan at 355-460 nm for Hoechst (cell number) and 485-538 nm for the secondary antibody (DNA damage). Background is subtracted and relativized with values obtained from Hoechst staining in order to obtain the value of DNA damage relative to the cell count of each well. Results were normalized using the basal values.

[3] = system: p53 in HaCat keratinocytes; assay: p53 quantification by ELISA after hydrocortisone (Human Total p53 DuoSet IC ELISA); type: cell-based; conditions: compounds at 0.1 and 1 μM, 1 h before 10 μM hydrocortisone, 2 h
Description: HaCat keratinocytes were cultured in DMEM medium supplemented with 10% FCS. […] Assays were performed with cells between 80% and 90% of confluence and with a cell viability above 90% (tested by trypan blue staining). 20000 cells per experimental condition were seeded in 24 well plates with 1 mL of medium for 24h. Culture medium was substituted for not supplemented DMEM and after a 24 hour incubation, compounds were added at 0.1 and 1 μM to assay wells. […] Cells were lysed in 100 μL of lysis buffer and 5 μg of total cell extract were used for the quantitative ELISA. Optical density was measured at 450 nm and background was subtracted.

[4] = biological target: T2, progesterone receptors (PR) (Homo sapiens, UniProt P06401); assay: PR antagonist assay (GeneBLAzer beta-lactamase reporter, UAS-bla HEK 293T cells, R5020 as agonist); type: cell-based; conditions: for antagonist action on PR (in words): against promegestone (R5020)
T2 sequence (P06401 679-933 limits assumed): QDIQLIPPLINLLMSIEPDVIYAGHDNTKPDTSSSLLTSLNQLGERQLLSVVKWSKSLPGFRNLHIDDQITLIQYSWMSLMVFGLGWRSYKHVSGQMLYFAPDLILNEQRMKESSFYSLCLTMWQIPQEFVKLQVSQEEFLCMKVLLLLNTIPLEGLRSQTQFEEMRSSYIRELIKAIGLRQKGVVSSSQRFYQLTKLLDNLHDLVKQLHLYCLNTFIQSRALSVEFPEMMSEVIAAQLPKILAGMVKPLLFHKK
Description: An antagonist assay for PR was performed. In this assay, an engineered cell line (UAS-bla HEK 293T) expressing PR is used to test the action of two xanthophylls. The detection method consists in GeneBLAzer® technology, based on mammalian-optimized Beta-lactamase reporter gene (bla) combined with a FRET-enabled substrate.
In FIG. 7, neoxanthin and fucoxanthin were tested against the agonist promegestone (R5020).

Row | Compound | antagonist effect on GR (in words) [1] | protection of DNA from hydrocortisone-induced damage (in words) (HaCat cell line) | GR inhibition [1] | p53 expression in the presence of hydrocortisone (in words) [3] | antagonist action on PR (in words) [4] | also measured
1 | CC1=C(/C=C/C(C)=C/C=C/C(C)=C/C=C/C=C(C)/C=C/C=C(C)/C=C/C2=C(C)C(=O)[C@@H](O)CC2(C)C)C(C)(C)C[C@H](O)C1=O [astaxanthin] | neither compounds exercise an antagonist effect on GR |  |  |  |  | 
2 | C\C(C=C=C1C(C)(C)C[C@H](O)C[C@@]1(C)O)=C/C=C/C(C)=C/C=C/C=C(C)/C=C/C=C(\C)C(=O)/C=C1\C(C)(C)C[C@H](O)C[C@@]1(C)O [iso-fucoxanthinol] |  |  |  |  |  | maximum GR inhibition ([1]; at 10 mM (so in the source), against dexamethasone (FIG. 6)): 80%
3 | CC(=O)O[C@H]1C(=O)[C@@]2(C)[C@H]([C@H](OC(=O)c3ccccc3)[C@]3(O)C[C@H](OC(=O)[C@H](O)[C@@H](NC(=O)c4ccccc4)c4ccccc4)C(C)=C1C3(C)C)[C@]1(OC(C)=O)CO[C@@H]1C[C@@H]2O [paclitaxel, reference compound] |  |  |  |  |  | EC50 ([2]; Homo sapiens): 0.0044 µM
4 | CC1=C(/C=C/C(C)=C/C=C/C(C)=C/C=C/C=C(C)/C=C/C=C(C)/C=C/C2=C(C)CCCC2(C)C)C(C)(C)CCC1 [beta-carotene] | neither compounds exercise an antagonist effect on GR |  |  |  |  | 
5 | fucoxanthin | parcial antagonist | capable of protecting DNA | 50% | increase p53 expression | None of them showed an important antagonist action | concentration from which compound acts as GR antagonist ([1]; against dexamethasone (FIG. 5)): 30 nM; EC50 ([2]; MTT, fucoxanthin alone): 7.46 µM; PR inhibition ([4]; at the highest concentration tested, against R5020): 30%
6 | CC(=C/C=C/C(C)=C/C=C/C=C(C)/C=C/C=C(\C)C=C=C1C(C)(C)C[C@H](O)C[C@@]1(C)O)/C=C/[C@@]12O[C@]1(C)C[C@@H](O)CC2(C)C [neoxanthin] | total antagonist | capable of protecting DNA | above 85% | increase p53 expression | None of them showed an important antagonist action | 

From patent publication US11622946B2, “Uses of a carotenoid in the treatment or prevention of stress induced conditions” (GREENALTECH, S.L., priority 2016, dated 2023)
